Data: patent EP2353599A1, “8-hydroxyquinolines as inhibitors of cathepsin B” (University of Ljubljana, priority 2010, dated 2011)

What was measured:
[1] = target: Cathepsin B (Homo sapiens, UniProt P07858); experiment: Cathepsin B endopeptidase activity, enzyme kinetics with substrate Z-RR-AMC; type: biochemical
Description: The effect of 8-hydroxyquinolines on cathepsin B enzymatic activity was assessed using enzyme kinetics. First, the effect of 8-hydroxyquinolines on cathepsin B endopeptidase activity was assessed using the cathepsin B specific endopeptidase substrate Z-RR-AMC. 5 µl of the Z-RR-AMC (final concentration 60, 180 and 360 µM) and 5 µl of respective compound at increasing concentrations were added to wells of a black microplate. 90 µl of human recombinant cathepsin B was then added to a final concentration of 0.4 nM in activation buffer (100 mM phosphate buffer, pH 6.0 with 0.1 % PEG, 5 mM DTT and 1.5 mM EDTA). All assay mixtures contained a constant amount of DMSO, i.e. 5 %. Formation of fluorescent degradation product was continuously monitored at 380 nm ± 20 nm excitation and […] ± 10 nm emission wavelengths on Tecan Safire^2™ at 37°C. Mechanism and the constant of inhibition (Ki) of cathepsin B endopeptidase activity were determined using the graphical method according to Cornish-Bowden (Cornish-Bowden A: A Simple Graphical Method for Determining the Inhibition Constants of Mixed, Uncompetitive and Non-Competitive Inhibitors. Biochem J 1974, 137:143-4.) and using the SigmaPlot® 11, Enzyme Kinetics Module™ 1.3. Table I. Results of testing the compounds according to Formula (I) on cathepsin B endopeptidase activity.

[2] = system: MCF-10A neoT cells; experiment: MTS cytotoxicity assay; type: cell-based; conditions: 10 µM, 24 h incubation
Description: A MTS assay was used to assess the cytotoxic effect of 5-nitro-8-hydroxyquinoline on MCF-10A neoT cells. 5 × 10^4 cells in 100 µl of medium were added to a single well of a 96-microtiter plate to which a 100 µl of 5-nitro-8-hydroxyquinoline solution (twice the final concentration) was added. After 24 h incubation the cells were washed and the medium was replaced with 100 µl of fresh medium to which a 20 µl of MTS was added. After 2 h incubation the absorbance was measured at 490 nm. The experiment was performed in quadruplicates and DMSO was used as control.

[3] = system: MCF-10A neoT cell line; experiment: Millicell Matrigel in vitro tumour cell invasion assay; type: cell-based; conditions: Homo sapiens, 24 h, read-out: inhibition of tumour invasion compared to DMSO control
Description: To assess the ability of 5-nitro-8-hydroxyquinoline to inhibit tumour cell invasion two independent experiments were used. First, an in vitro invasion model using Millicell Cell culture inserts (12 mm polycarbonate inserts with 12 µm pores) was performed. The bottom sides of 24-wells were coated with 100 µl of fibronectin from bovine plasma (25 µg/ml) and left in a laminar hood to dry. The upper side of Millicell inserts was coated with 100 µl of Matrigel (0.75 mg/ml in serum free medium) and incubated for 1 h at 37 °C. The inserts were then placed in with fibronectin coated wells. The upper compartments of the inserts were filled with 200 µl MCF-10A neoT cell suspension (7.5x10^5/ml) containing 5-nitro-8-hydroxyquinoline (10 µM) in serum free medium and the bottom compartments were filled 500 µl of medium containing 10 µM 5-nitro-8-hydroxyquinoline and 10 % fetal calf serum. After 24 h incubation the bottom sides of wells were washed with 500 µl of PBS and the cells that were attached were detached by 0.05 % trypsin and 0.02 % EDTA in PBS. […] After a 2 h incubation period the absorbance was measured at 490 nm. […] The percentage of cell invasion was calculated as the ratio between the invading cells and the total cell population.

[4] = system: MCF-10A neoT cells; experiment: Extracellular DQ-collagen IV degradation, fluorescence intensity in medium; type: cell-based; conditions: Homo sapiens, MCF-10A-neoT, 3 h, DQ-collagen IV 5 µg/ml
Description: Two experiments were set to differentiate between inhibition of intracellular and extracellular DQ-collagen IV degradation. Inhibition of extracellular DQ-collagen IV degradation was observed by monitoring the fluorescence intensity of degraded DQ-collagen IV in the medium in which MCF-10A neoT cells were grown. 5 × 10^4 MCF-10A neoT cells were plated into wells of a 96-well black plate and were allowed to attach over night. Cells were then incubated with 100 µl PBS containing 5-nitro-8-hydroxyquinoline, CA-074 or CA-074Me (10 µM) and DQ-collagen IV (5 µg/ml) for 3 h. Afterwards, the 80 µl of PBS was transferred into the empty wells and the fluorescence intensity was measured at 495 nm ± 5 nm excitation and 515 nm ± 5 nm emission wavelengths on Tecan Safire^2™. The experiment was performed in 8 parallels and DMSO was used as a control.

[5] = system: MCF-10A neoT cells; experiment: Intracellular DQ-collagen IV degradation by flow cytometry; type: cell-based; conditions: 50 µM, shift in fluorescence intensity
Description: Inhibition of intracellular DQ-collagen IV degradation was observed by flow cytometry by a shift in fluorescence intensity. 5 × 10^4 MCF-10A neoT cells in complete medium were plated into the wells of a 24-well plate and allowed to attach over night. Afterwards, the medium was replaced with 500 µl of serum free medium with 5-nitro-8-hydroxyquinoline, CA-074 or CA-074Me (50 µM). After 2 h incubation the medium was again replaced with serum free medium containing inhibitors (50 µM) and DQ-collagen IV (5 µg/ml). DMSO was used as a control. For the experiment only viable cells were selected using propidium iodide. The measurements were performed on a FACS Calibur instrument (Beckton Dickinson, Inc.).

In the case of O=[N+]([O-])c1ccc(O)c2ncccc12 [Compound 1, 5-nitro-8-hydroxyquinoline], the Mechanism of inhibition ([1]; cathepsin B endopeptidase activity) is reported as “uncompetitive inhibition”, the Ki ([1]; endopeptidase activity, substrate Z-RR-AMC, pH 6.0, 37°C) is reported as 37.7 ± 3.5 µM and the “cytotoxic effect (cell viability, MTS)” value [2] is reported as “non-toxic”. The inhibition at 10 µM [3] was 40.7%, the inhibition at 10 µM [4] was 35.3% and the “inhibition of intracellular DQ-collagen IV degradation” value [5] was “significantly inhibits”.
